13 molecules from PubChem BioAssay (NCI) can be followed below.

Some test systems named below: LOX IMVI melanoma; M14 melanoma; A549 NSCLC; RPMI-8226 leukemia; A498 renal; RXF 393 renal; SK-MEL-2 melanoma; HT29 colon; SW-620 colon; TK-10 renal; HCT-116 colon; UACC-257 melanoma; SF-539 CNS.
Common to all, as to assay: inhibition of tumour cell growth, NCI panel, 48 h

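Compound exposure: 48 hours, 5 concentrations, 96-well plates. At the TGI there is no net growth.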 A value given as a limit tells only on which side of the number the result lay.

With `O=C(Cn1c2ccc(Br)cc2c2nc3ccccc3nc21)N1CCOCC1`, the TGI in the assay on LOX IMVI melanoma was over 100 µM; in the assay on M14 melanoma, over 100 µM; with A549 NSCLC it was over 100 µM; in the assay with RPMI-8226 leukemia it was over 100 µM; in the assay on A498 renal, over 100 µM; in the assay with RXF 393 renal it was 98.9 µM. Besides, the TGI in the assay on SK-MEL-2 melanoma, with HT29 colon, with SW-620 colon, with TK-10 renal, in the assay on HCT-116 colon and with UACC-257 melanoma was over 100 µM in each case.

Turning to `CC(Cn1c(=O)oc2ccccc21)N(C)C` (stereo not drawn), the TGI in the assay with LOX IMVI melanoma, in the assay on M14 melanoma, with RPMI-8226 leukemia, in the assay with A498 renal, with RXF 393 renal and with SK-MEL-2 melanoma was over 100 µM in each case. Also, the TGI with HT29 colon, with SF-539 CNS, in the assay on SW-620 colon, with TK-10 renal, in the assay on HCT-116 colon and with UACC-257 melanoma was over 100 µM in each case.

With `C/C1=C\CC[C@@]2(C)O[C@@H]2C[C@@H]2[C@H](C/C(C)=C/CC1)OC(=O)[C@]21CO1`, the TGI is 44.6 µM in the assay on LOX IMVI melanoma; over 100 µM in the assay on M14 melanoma; over 100 µM with A549 NSCLC; over 100 µM in the assay with RPMI-8226 leukemia; over 100 µM in the assay with A498 renal; over 100 µM in the assay with RXF 393 renal. In addition, the TGI with SK-MEL-2 melanoma, in the assay with HT29 colon, in the assay on SW-620 colon, in the assay on TK-10 renal, in the assay on HCT-116 colon and in the assay on UACC-257 melanoma was over 100 µM throughout.

As to `O=C1CS(=O)c2ccccc2N1` (stereo not drawn), the TGI in the assay with LOX IMVI melanoma, in the assay with M14 melanoma, with A549 NSCLC, with RPMI-8226 leukemia, in the assay with A498 renal and in the assay on RXF 393 renal was over 100 µM throughout. The TGI in the assay with SK-MEL-2 melanoma, with HT29 colon, with SF-539 CNS, with TK-10 renal, in the assay with HCT-116 colon and in the assay with UACC-257 melanoma was over 100 µM each time.

As for `O=C1NC(NNc2ccccc2)=N/C1=C\c1ccco1`, the TGI was 44.5 µM in the assay with M14 melanoma; over 100 µM in the assay with A549 NSCLC; 66 µM in the assay with RPMI-8226 leukemia; over 100 µM in the assay with A498 renal; 28.6 µM in the assay with RXF 393 renal; 48.2 µM with SK-MEL-2 melanoma. Further, the TGI was 52.3 µM with HT29 colon; 60.7 µM in the assay on SW-620 colon; 36.4 µM in the assay with TK-10 renal; 37.9 µM with HCT-116 colon; 63.5 µM with UACC-257 melanoma.

`S=C1C(CCCOCc2ccccc2)C2CCCC23CC2(CCN13)OCCS2` (stereo not drawn): the TGI with LOX IMVI melanoma, with M14 melanoma, in the assay on RPMI-8226 leukemia, in the assay on A498 renal, in the assay with RXF 393 renal and in the assay with SK-MEL-2 melanoma was over 10 µM in each case. Moreover, the TGI in the assay with HT29 colon, with SF-539 CNS, in the assay with SW-620 colon, with TK-10 renal and with UACC-257 melanoma was over 10 µM in each case.

Consider `CC(NNC(=S)N1CCCC1)c1cccnn1` (stereo not drawn), for which the TGI with LOX IMVI melanoma was over 100 µM; in the assay with RPMI-8226 leukemia it was over 100 µM; in the assay with A498 renal, 97.5 µM; in the assay on RXF 393 renal, 0.671 µM; in the assay with SK-MEL-2 melanoma it was over 100 µM; in the assay with HT29 colon it was over 100 µM. In addition, the TGI with SF-539 CNS was 4.36 µM; in the assay on SW-620 colon it was over 100 µM; with TK-10 renal, over 31.5 µM; in the assay with HCT-116 colon, over 44 µM.

On to `CCOC(=O)NC(C(F)(F)F)(C(F)(F)F)P(=O)(OCC)OCC`, for which the TGI in the assay with LOX IMVI melanoma was over 100 µM; with M14 melanoma it was over 100 µM; with RPMI-8226 leukemia it was 87.4 µM; in the assay with A498 renal, over 100 µM; with RXF 393 renal, 44.1 µM; with HT29 colon it was over 100 µM. In addition, the TGI in the assay on SW-620 colon, in the assay on TK-10 renal and in the assay with HCT-116 colon was over 100 µM in each case.

Turning to `CN(C)C1(N(C)C)Oc2c(c(=O)n(C)c(=O)n2C)C(c2ccc(F)cc2)C1(F)F` (stereo not drawn), the TGI with LOX IMVI melanoma, in the assay with M14 melanoma, in the assay with A549 NSCLC, in the assay with RPMI-8226 leukemia, in the assay with A498 renal and in the assay on RXF 393 renal was over 100 µM in each case. Besides, the TGI in the assay with SK-MEL-2 melanoma, in the assay on SW-620 colon, with TK-10 renal, in the assay on HCT-116 colon and with UACC-257 melanoma was over 100 µM each time.

Consider `CCCC1(N2C(=O)c3ccc4c5c(ccc(c35)C2=O)N(C2(CCC)CCCCC2)C4=O)CCCCC1`, for which the TGI with M14 melanoma, in the assay with A549 NSCLC, in the assay with RPMI-8226 leukemia, in the assay on A498 renal, in the assay with RXF 393 renal and with SK-MEL-2 melanoma was over 100 µM in each case. The TGI with HT29 colon, in the assay on SF-539 CNS, in the assay with SW-620 colon, with TK-10 renal and with HCT-116 colon was over 100 µM each time.

With `C[C@@]12C[C@@H](c3ccccc3O1)N1CCCSC1=N2`, the TGI with LOX IMVI melanoma, in the assay on M14 melanoma, in the assay with RPMI-8226 leukemia, in the assay with A498 renal, in the assay on RXF 393 renal and in the assay with SK-MEL-2 melanoma was over 100 µM throughout. In addition, the TGI in the assay with HT29 colon, in the assay with SF-539 CNS, in the assay with SW-620 colon, with TK-10 renal, with HCT-116 colon and in the assay on UACC-257 melanoma was over 100 µM throughout.

On to `N#Cc1c2c(c(Nc3cccc(C(F)(F)F)c3)n3c1nc1ccccc13)CCCC2`, for which the TGI was 35.8 µM in the assay with LOX IMVI melanoma; over 100 µM in the assay with RPMI-8226 leukemia; 94.9 µM in the assay on A498 renal; 86.2 µM with RXF 393 renal; 56.4 µM in the assay on HT29 colon; 31 µM with SF-539 CNS. Moreover, the TGI was over 100 µM in the assay with SW-620 colon, 44.4 µM in the assay with TK-10 renal, over 100 µM with HCT-116 colon and over 100 µM with UACC-257 melanoma.

For `Nc1nc(N)c2c(-c3ccccc3)ccnc2n1`, the TGI in the assay with LOX IMVI melanoma, in the assay on RPMI-8226 leukemia, in the assay on A498 renal, with RXF 393 renal, with SK-MEL-2 melanoma and in the assay with HT29 colon was over 100 µM in each case. The TGI in the assay on SW-620 colon, in the assay with TK-10 renal, with HCT-116 colon and with UACC-257 melanoma was over 100 µM in each case.
